Assay [1] concerns the target T1, GjALDH2C3 (Gardenia jasminoides, UniProt A0A288W8F8).
T1 sequence (A0A288W8F8 1-503): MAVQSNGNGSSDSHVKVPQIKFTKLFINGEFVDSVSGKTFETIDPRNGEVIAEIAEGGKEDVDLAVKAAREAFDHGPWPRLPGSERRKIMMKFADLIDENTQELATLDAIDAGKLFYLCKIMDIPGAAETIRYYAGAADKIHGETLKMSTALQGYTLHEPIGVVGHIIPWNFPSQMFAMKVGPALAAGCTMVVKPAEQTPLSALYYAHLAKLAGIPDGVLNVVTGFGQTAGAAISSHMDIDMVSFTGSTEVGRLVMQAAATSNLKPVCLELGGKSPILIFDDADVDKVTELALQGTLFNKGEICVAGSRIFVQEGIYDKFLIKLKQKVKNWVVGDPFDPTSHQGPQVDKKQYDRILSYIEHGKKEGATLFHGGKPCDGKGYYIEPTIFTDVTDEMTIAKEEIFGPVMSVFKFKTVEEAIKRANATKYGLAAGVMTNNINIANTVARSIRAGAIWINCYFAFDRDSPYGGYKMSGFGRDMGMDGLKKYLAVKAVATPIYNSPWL
Nature of the assay: in vitro oxidation, UPLC-DAD and LC-MS. Format: biochemical. Particulars: products crocetin and crocetin semialdehyde.

For assay [2], the target named is T2, GjUGT74F8 (Gardenia jasminoides, UniProt Z9ZI51R9R0).
T2 sequence (Z9ZI51R9R0 1-457): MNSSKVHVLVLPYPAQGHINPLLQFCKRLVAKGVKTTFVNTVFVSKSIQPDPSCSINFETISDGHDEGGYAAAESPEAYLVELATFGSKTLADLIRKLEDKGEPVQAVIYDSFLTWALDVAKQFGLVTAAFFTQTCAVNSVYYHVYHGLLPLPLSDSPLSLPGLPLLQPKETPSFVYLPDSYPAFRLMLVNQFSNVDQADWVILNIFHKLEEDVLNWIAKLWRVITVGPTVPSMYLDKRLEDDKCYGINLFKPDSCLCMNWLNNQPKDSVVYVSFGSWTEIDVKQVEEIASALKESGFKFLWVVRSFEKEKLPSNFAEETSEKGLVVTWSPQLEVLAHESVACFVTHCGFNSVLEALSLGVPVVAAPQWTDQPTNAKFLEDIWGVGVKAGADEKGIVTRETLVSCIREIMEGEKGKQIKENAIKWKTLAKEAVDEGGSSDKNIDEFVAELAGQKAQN
Nature of the assay: in vitro glucosylation, UPLC-DAD and LC-MS. Format: biochemical. Particulars: products crocin III and crocin V.

Assay [3] has as its target T3, GjUGT75L6 (Gardenia jasminoides, UniProt F8WKW0).
T3 construct: gene UGT75L6
Particulars: purification not stated in main text.

Assay [4] addresses T4, GjUGT94E13 (Gardenia jasminoides, UniProt A0A288W8G7).
T4 sequence (A0A288W8G7 1-446): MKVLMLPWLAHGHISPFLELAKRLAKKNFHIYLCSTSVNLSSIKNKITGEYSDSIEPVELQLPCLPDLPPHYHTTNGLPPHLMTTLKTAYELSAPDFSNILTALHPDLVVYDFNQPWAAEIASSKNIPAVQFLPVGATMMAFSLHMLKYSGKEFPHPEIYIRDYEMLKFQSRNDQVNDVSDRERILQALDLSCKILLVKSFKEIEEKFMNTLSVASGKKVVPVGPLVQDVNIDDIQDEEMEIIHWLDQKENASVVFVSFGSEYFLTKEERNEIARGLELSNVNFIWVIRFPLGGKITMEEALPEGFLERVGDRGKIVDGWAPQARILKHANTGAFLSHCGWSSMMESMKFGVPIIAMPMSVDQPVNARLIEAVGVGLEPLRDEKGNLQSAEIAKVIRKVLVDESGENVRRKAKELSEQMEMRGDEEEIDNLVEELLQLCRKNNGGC
Nature of the assay: in vitro glucosylation, UPLC-DAD and LC-MS. Particulars: product crocin I. Format: biochemical.

Assay [5] has as its target T2, GjUGT74F8. Nature of the assay: in vitro de-glucosylation, UPLC-DAD and LC-MS. Format: biochemical. Particulars: reversible; product crocin IV.
For assay [6], the target named is GjCCD4a (Gardenia jasminoides, UniProt A0A288W8F9). The experiment in a line: in bacterio carotenoid cleavage, UPLC-DAD and LC-MS. Particulars: E. coli accumulating zeaxanthin; product crocetin dialdehyde.
Chain of GjCCD4a (A0A288W8F9 entry or part of it): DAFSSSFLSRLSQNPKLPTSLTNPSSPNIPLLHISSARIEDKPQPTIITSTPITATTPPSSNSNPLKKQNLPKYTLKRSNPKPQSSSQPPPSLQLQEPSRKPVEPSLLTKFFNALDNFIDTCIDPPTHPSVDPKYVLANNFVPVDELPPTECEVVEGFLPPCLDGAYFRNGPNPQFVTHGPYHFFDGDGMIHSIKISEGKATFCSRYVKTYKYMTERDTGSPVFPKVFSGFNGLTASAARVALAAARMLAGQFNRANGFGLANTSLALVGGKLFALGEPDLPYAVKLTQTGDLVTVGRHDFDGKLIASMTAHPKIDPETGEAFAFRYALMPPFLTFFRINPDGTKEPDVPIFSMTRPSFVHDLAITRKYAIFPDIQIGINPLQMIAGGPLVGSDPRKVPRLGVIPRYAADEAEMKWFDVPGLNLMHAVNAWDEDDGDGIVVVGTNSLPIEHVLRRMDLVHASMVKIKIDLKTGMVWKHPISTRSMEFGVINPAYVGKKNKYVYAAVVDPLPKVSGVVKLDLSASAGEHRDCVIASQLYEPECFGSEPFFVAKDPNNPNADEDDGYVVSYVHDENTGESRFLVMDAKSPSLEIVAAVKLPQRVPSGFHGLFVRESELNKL

T3 sequence (F8WKW0 whole entry): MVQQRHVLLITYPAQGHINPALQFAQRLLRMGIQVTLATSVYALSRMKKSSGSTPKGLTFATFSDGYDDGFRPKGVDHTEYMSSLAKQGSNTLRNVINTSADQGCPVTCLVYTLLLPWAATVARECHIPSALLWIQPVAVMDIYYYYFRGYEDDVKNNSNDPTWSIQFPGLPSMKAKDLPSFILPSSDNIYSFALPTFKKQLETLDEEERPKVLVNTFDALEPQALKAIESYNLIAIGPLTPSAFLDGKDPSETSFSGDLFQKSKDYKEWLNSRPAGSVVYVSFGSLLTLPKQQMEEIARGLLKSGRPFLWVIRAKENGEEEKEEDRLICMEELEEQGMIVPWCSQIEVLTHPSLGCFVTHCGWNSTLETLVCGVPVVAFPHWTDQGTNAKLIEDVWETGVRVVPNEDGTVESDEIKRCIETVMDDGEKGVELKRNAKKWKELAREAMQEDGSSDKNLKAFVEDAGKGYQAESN

In the case of `C\C(C=O)=C/C=C/C(C)=C/C=C/C=C(C)/C=C/C=C(\C)C=O` [crocetin dialdehyde], the “in vitro oxidation, UPLC-DAD and LC-MS” value in assay [1] was “Incubation of crocetin dialdehyde with GjALDH2C3 yielded two new peaks”.

`CC(/C=C/C=C(\C)C(=O)O)=C\C=C\C=C(C)\C=C\C=C(/C)C(=O)O` [crocetin]: the “in vitro glucosylation, UPLC-DAD and LC-MS” value in assay [2] is recorded as “Upon in vitro incubation of GjUGT74F8 with crocetin, two new peaks”. In addition, the “in vitro glucosylation, UPLC” value in assay [3] is “GjUGT75L6, and GjUGT94E13, were able to glycosylate crocetin and/or crocins”.

As to `CC(/C=C/C=C(\C)C(=O)O[C@@H]1O[C@H](CO)[C@@H](O)[C@H](O)[C@H]1O)=C\C=C\C=C(C)\C=C\C=C(/C)C(=O)O[C@@H]1O[C@H](CO[C@@H]2O[C@H](CO)[C@@H](O)[C@H](O)[C@H]2O)[C@@H](O)[C@H](O)[C@H]1O` [crocin II], in assay [4], the “in vitro glucosylation, UPLC-DAD and LC-MS” value was “GjUGT94E13 could efficiently catalyze the glycosylation of crocins II and III to crocin I”. Also, the “in vitro de-glucosylation, UPLC-DAD and LC-MS” value in assay [5] was “reversible conversion of crocin II to crocin IV and vice versa was observed”.

With `CC1=C(/C=C/C(C)=C/C=C/C(C)=C/C=C/C=C(C)/C=C/C=C(C)/C=C/C2=C(C)C[C@@H](O)CC2(C)C)C(C)(C)C[C@H](O)C1` [zeaxanthin], the “in bacterio carotenoid cleavage, UPLC-DAD and LC-MS” value in assay [6] was “a new product with a retention time and characteristic fragment ions”.

These data come from article PMC7302004, “Tandem gene duplications drive divergent evolution of caffeine and crocin biosynthetic pathways in plants” (BMC Biology, 2020).
